Data as given in patent US11826414B2, “Measurement of afucosylated IgG Fc glycans and related vaccination methods” (priority 2017, dated 2023).
Read-outs that look alike come from different tables or passages of the source.

Tests used:
dengue 2 [1] = assay type: cell-based, dengue virus; conditions: for Inhibition of dengue 2 infection (ADE): FcγRIIa+FcγRIIIa+ monocytes, pre-incubation with inhibitor
dengue 2 [2] = assay type: cell-based, dengue virus; conditions: FcγRIIa+FcγRIIIa− U937 cells treated with PMA/ionomycin
Zika virus (ZIKV) = assay type: cell-based; conditions: DC-SIGN U937 cells, no antibodies present
[3] = system: H1N1 influenza virus (IAV); assay type: cell-based; conditions: DC-SIGN U937 cells, no antibodies present
[4] = system: H3N2 influenza virus (IAV); assay type: cell-based; conditions: DC-SIGN U937 cells, no antibodies present
[5] = system: FcγRIIa^+FcγRIIIa^+ monocytes; conditions: at concentrations tested

Molecule: 11R-VIVIT
- Inhibition of dengue infection (dengue 2 [1]; 5 μM peptide, all MOIs tested): > 70%
- Inhibition of dengue 2 infection (ADE) (dengue 2 [1]): inhibited dengue 2 infection in a concentration-dependent manner
- Inhibition of dengue 2 replication, time of treatment (dengue 2 [1]; treatment of cells up to 2 hours following infection): inhibited dengue 2 replication
- Inhibition of enhanced infection after PMA/ionomycin treatment (dengue 2 [2]): could be inhibited
- Inhibition of infection (Zika virus (ZIKV)): did not inhibit
- Inhibition of infection [3]: did not inhibit
- Inhibition of infection [4]: did not inhibit
- Cell viability [5]: unaffected

Molecule: Cc1cccc(Nc2nc(N[C@@H]3CCCC[C@@H]3N)ncc2C(N)=O)c1 [PRT318]
- Inhibition of dengue 2 infection (ADE) (dengue 2 [1]): inhibited in FcγRIIa^+FcγRIIIa^+ monocytes in a concentration-dependent manner
- Inhibition of dengue 2 infection (ADE) (dengue 2 [1]; listed as PRT): inhibited dengue 2 infection in FcγRIIa+FcγRIIIa+ monocytes in a concentration-dependent manner
